Where two headings read alike, the source gives them in different places.
Legend:
[1] = molecular target: T1, Human Ghrelin Receptor (GHS-R 1A) (Homo sapiens (Human), UniProt Q92847); experiment: CRE/Luc reporter gene assay, antagonist; format: cell-based; details: 6 h, 1 μM rolipram
Source text: (§1) Mouse LTK-cells (ATCC CCL-1.3) were stably transfected with a plasmid containing the CMV minimal promoter (CMVmin) linked to three cAMP response elements (CRE) followed by a luciferase reporter gene. Based on this parental cell line, single cell clones stably overexpressing the human, rat or mouse GHS-R 1A have been established and characterized with respect to suitability for the different assay formats.
For the CRE/Luc reporter gene assay, the mouse LTK-cells stably expressing the human GHS-1RA and a luciferase reporter gene under the control of CRE elements and the CMV minimal promoter were incubated for 6 h with 1 μM rolipram in the presence of different concentrations of AEZS-130. Subsequently, cells were lysed and ATP bioluminescence was measured in the luminescence mode on FlexStation3 (Molecular Devices).
(§2) IC50 values were determined by using the GraphPad Prism analysis program (GraphPad Software).
(§3) Values given are either single measurements or mean values of up to nine independent experiments performed in duplicate (binding) or quadruplicate (functional assays) measurements.

[2] = molecular target: T1, Human Ghrelin Receptor (GHS-R 1A); experiment: Calcium release, antagonist; format: cell-based; details: 15 minutes preincubation, then ghrelin
Source text: as §1
(§4) For determination of calcium release the respective cell line was loaded with Fluo-4 NW Calcium Assay Kit (Moleculare Probes/Invitrogen # F10741) for 80 min @ 37° C. After 15 minutes of preincubation with different concentrations of the test compounds ghrelin was added and the signal was monitored for 60 seconds by a FlexStation3 microplate reader (Molecular Devices).
as §2, §3

hERG channel = hERG channel (Homo sapiens (Human), UniProt Q12809); experiment: Predictor hERG Fluorescence Polarization Assay; format: binding
Sequence of hERG channel (Q12809 whole entry): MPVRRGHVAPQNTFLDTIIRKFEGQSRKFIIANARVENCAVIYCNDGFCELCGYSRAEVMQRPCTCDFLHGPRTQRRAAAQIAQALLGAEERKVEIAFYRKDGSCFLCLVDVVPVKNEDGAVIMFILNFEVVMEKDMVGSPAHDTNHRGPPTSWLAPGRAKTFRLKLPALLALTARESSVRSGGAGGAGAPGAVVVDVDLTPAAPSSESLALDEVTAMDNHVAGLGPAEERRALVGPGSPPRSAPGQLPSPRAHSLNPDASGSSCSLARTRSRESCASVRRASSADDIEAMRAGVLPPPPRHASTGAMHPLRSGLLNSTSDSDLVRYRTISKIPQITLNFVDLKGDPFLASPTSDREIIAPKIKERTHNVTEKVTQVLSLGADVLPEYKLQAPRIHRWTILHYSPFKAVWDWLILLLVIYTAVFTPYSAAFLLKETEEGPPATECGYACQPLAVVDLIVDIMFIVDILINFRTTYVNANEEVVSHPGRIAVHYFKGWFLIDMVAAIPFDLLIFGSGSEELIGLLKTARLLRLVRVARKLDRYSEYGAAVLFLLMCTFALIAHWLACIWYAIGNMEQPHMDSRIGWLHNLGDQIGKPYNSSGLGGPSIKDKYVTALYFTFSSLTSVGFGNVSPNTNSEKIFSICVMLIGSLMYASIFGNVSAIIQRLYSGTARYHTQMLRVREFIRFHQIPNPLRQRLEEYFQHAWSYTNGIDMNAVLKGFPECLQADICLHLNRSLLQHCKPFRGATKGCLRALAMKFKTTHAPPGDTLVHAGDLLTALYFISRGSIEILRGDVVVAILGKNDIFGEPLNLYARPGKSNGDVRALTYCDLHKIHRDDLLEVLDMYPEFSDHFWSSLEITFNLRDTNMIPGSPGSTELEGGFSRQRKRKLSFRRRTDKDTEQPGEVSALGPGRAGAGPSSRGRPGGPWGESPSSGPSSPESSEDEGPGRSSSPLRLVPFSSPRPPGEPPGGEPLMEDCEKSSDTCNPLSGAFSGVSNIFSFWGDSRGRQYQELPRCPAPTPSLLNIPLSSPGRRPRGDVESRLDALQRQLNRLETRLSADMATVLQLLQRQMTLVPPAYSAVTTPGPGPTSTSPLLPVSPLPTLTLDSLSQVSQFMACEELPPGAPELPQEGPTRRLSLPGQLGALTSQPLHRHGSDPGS
Source text: The Predictor™ hERG Fluorescence Polarization Assay (Invitrogen, Karlsruhe, GER) determines whether test compounds block the hERG channel [Piper, D. R. et al., Assay Drug Dev Technol. 2008, 6(2):213-23]. The assay uses a membrane fraction containing hERG channel protein (Predictor™ hERG Membrane) and a high-affinity red fluorescent hERG channel ligand, or “tracer” (Predictor™ hERG Tracer Red), in a homogenous, fluorescence polarization (FP)-based format. Compounds that bind to the hERG channel protein (competitors) are identified by their ability to displace the tracer, resulting in a lower fluorescence polarization. The assay was performed according to guidelines of the manufacturer

[3] = Stability in liver microsomes; format: in vitro ADME, rat; details: @37° C./1 mg/ml Liver Microsomes, 10 μM
Experimental: Metabolic stability in liver microsomes of different species (in the presence of NADPH, 1 mg/ml microsomal protein) was evaluated at 37° C. over time in triplicates at a test concentration of 10 μM. Loss of parent compound is measured by an HPLC-based UV detection method. For prediction of rat hepatic clearance half-lives (t1/2) were fitted from first-order rate constant k (min^−1) obtained from the slope of time versus In % remaining.

[4] = CaCo-2 permeability assay; format: in vitro ADME; details: human; for Papp A→B at 2 h: a to b, read-out: CaCo-2 Assay Papp ab; for Papp A→B at 2 h / Papp B→A at 2 h: 3 or 5 μM, 2 hours at 37° C.; for Papp B→A at 2 h: b to a, read-out: CaCo-2 Assay Papp ba; for efflux ratio at 2 h: read-out: CaCo-2 Assay ba/ab
Experimental: For the CaCo-2 permeability assay 80.000 CaCo-2 cells (ATCC HTB-37) were seeded in DMEM supplemented with 10% FCS, 1% Penicillin/Streptomycin and 1% non-essential amino acids per 24 well transwell plate (Corning 3397) and were grown for 21 days by changing the media every second day. On day 21 the medium was replaced by HBSS buffer (Invitrogen #14065) supplemented with 0.25% and 1% BSA for the donor and acceptor compartment, respectively. The compounds were added to the respective donor compartment in a concentration of 3 or 5 μM and were incubated for 2 hours at 37° C. The respective compound concentrations were determined by LC-MS analytics using an API 2000. Data analysis was performed as described by Sun and Pang 2008, Drug Metabolism and Disposition 36, 102-123.

[5] = molecular target: MDR-1 (P-glycoprotein, Pgp) (Homo sapiens (Human), UniProt P08183); experiment: Inhibition of MDR1 ATPase (Pgp-Glo assay, SF9 membrane preparations); format: biochemical
Sequence of MDR-1 (P-glycoprotein, Pgp) (P08183 whole entry): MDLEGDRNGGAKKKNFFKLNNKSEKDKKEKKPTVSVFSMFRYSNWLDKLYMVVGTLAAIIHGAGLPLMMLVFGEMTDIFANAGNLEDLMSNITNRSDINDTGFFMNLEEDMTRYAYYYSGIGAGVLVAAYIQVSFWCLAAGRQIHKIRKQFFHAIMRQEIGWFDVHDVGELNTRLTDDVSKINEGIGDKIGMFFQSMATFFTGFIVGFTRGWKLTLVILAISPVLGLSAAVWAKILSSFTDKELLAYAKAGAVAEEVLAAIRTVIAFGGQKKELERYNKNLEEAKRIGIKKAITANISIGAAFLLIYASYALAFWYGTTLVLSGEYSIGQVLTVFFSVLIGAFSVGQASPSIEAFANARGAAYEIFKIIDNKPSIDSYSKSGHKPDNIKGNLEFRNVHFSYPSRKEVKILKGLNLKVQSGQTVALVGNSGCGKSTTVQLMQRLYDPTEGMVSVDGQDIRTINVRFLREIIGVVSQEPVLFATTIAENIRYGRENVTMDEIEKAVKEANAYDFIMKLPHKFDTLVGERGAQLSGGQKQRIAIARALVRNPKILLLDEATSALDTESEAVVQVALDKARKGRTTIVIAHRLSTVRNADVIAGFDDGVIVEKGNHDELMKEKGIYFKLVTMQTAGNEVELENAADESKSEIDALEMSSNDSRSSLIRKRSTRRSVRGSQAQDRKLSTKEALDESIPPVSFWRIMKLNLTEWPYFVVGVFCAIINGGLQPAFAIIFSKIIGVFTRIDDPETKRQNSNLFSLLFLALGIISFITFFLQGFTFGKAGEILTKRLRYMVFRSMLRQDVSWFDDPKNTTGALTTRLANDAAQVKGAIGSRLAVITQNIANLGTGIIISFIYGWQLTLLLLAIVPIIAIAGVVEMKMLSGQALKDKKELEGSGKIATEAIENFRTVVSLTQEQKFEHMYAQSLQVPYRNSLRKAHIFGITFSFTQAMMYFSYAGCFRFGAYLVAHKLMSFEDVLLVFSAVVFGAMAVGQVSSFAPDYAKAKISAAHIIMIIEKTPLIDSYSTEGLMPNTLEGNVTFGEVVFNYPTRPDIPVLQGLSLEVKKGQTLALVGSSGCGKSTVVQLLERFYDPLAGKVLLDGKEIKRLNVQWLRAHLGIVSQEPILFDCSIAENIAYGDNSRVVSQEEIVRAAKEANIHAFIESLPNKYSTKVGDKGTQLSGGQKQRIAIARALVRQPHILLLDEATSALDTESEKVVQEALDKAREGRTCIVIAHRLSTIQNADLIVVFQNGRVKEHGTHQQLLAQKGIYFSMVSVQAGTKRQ
Experimental: For detection of MDR-1 (P-glycoprotein, Pgp) ATPase activity commercially available membrane preparations of MDR-1 overexpressing SF9 insect cells (SB-MDR1-Sf9-ATPase Membrane; 2.5 mg/500 μL; Solvo/tebu-bio #168SB-MDR1-Sf9-ATPase) were used. Since transport by MDR-1 is ATP-dependent, ATP consumption indicates transport activity of MDR-1. ATP consumption is detected as a decrease in luminescence from a second reaction with a recombinant firefly luciferase by using the Pgp-Glo™ Assay Kit (Promega # V3591).

CYP3A4 = CYP3A4 (Homo sapiens (Human), UniProt P08684); experiment: CYP3A4 inhibition in human liver microsomes, direct and metabolism-dependent; format: in vitro ADME
Sequence of CYP3A4 (P08684 whole entry): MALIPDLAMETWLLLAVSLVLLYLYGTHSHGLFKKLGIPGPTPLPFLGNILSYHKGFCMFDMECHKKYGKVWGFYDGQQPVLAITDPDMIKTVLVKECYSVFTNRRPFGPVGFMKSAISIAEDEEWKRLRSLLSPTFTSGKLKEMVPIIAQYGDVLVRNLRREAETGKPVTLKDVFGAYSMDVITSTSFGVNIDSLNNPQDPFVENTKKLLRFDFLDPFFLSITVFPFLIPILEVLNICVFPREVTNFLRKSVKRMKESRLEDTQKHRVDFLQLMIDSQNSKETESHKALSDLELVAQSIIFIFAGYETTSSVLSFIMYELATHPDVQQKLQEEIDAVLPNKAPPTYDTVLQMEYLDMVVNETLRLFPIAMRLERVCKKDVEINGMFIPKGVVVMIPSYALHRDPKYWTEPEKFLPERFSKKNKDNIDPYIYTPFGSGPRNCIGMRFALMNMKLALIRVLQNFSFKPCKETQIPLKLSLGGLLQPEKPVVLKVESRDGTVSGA
Experimental: Direct and metabolism-dependent inhibition of CYP enzymes are assessed with specific marker substrates by a HPLC-based UV detection method in human liver microsomes. Incubations are carried out as doublets with final concentrations ranging from 0.01 to 200 μM (30 min, 37° C.). Metabolism-dependent inhibition was assessed by incubation for 30 minutes in the presence of NADPH prior to the addition of marker substrate to allow the generation of metabolites. Percent inhibition is plotted against concentration to calculate or extrapolate IC50 values from the sigmoid curve.

[6] = molecular target: Rat Ghrelin Receptor (GHS-R 1A) (Rattus norvegicus (Rat), UniProt O08725); experiment: Calcium release, antagonist; format: cell-based; details: 15 minutes preincubation, then ghrelin; read-out: Rat Ghrelin Receptor Antagonist Calcium Release IC50
Sequence of Rat Ghrelin Receptor (GHS-R 1A) (O08725 whole entry): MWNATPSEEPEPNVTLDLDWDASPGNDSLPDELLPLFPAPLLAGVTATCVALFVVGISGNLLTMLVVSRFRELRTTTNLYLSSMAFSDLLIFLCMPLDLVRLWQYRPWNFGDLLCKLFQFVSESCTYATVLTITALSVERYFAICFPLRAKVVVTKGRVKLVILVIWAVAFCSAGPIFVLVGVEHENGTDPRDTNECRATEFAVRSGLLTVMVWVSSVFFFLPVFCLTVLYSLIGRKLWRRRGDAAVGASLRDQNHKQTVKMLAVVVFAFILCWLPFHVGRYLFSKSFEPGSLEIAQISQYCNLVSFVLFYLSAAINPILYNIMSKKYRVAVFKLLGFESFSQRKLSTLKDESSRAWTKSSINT
Source text: as §1, §4, §2
(§5) In the following table 1 results obtained for selected compounds of the invention are presented in comparison to compound 50 disclosed in WO07/020,013. Values given are either single measurements or mean values of up to nine independent experiments performed in duplicate (binding) or quadruplicate (functional assays) measurements.

[7] = molecular target: Mouse Ghrelin Receptor (GHS-R 1A) (Mus musculus (Mouse), UniProt Q99P50); experiment: Calcium release, antagonist; format: cell-based; details: 15 minutes preincubation, then ghrelin; read-out: Mouse Ghrelin Receptor Antagonist Calcium Release IC50
Sequence of Mouse Ghrelin Receptor (GHS-R 1A) (Q99P50 whole entry): as the sequence (O08725 whole entry) above, with P30S, A249S counted along it
Source text: as §1, §4, §2, §5

[8] = molecular target: T1, Human Ghrelin Receptor (GHS-R 1A); experiment: Competitive binding, iodinated ghrelin tracer, intact LTK-cells overexpressing GHS-R 1A; details: 60 min at 37° C.
Source text: as §1
For receptor competitive binding studies, iodinated ghrelin was used as a tracer at conditions of about 80% saturation binding. Different concentrations of the test compounds were analyzed for displacement of the tracer. For this purpose, the suspension of intact cells plus tracer mix and different test compound concentrations was layered on top of silicon/paraffin oil, incubated for 60 min at 37° C. and subjected to centrifugation. After freezing in liquid nitrogen the cell pellets were separated from the supernatant by cutting the tubes in the intermediate silicon/paraffin oil section and analyzed by γ-radiation analysis. The amount of unspecific binding was determined by including unlabeled ghrelin at 1 μM final concentration.
as §2, §3

[9] = marker substrate testosteron, 30 minutes preincubation with NADPH, read-out: CYP3A4 Inhibition Testosteron Preincubation EC50
[10] = marker substrate testosteron, direct inhibition, human liver microsomes, read-out: CYP3A4 Inhibition Testosteron EC50

T1 sequence (Q92847 whole entry): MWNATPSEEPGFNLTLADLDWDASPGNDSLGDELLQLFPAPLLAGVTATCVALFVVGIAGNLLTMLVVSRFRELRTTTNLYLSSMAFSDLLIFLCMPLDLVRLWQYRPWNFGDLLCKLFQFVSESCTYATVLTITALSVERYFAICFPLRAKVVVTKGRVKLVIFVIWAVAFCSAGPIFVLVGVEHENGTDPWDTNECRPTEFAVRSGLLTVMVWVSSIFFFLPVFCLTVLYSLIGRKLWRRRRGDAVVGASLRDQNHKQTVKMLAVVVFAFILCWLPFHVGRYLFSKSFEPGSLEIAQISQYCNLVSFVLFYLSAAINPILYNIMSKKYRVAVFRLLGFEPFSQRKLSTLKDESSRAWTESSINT

## CCOC(=O)Cc1nnc([C@@H](Cc2c[nH]c3ccccc23)NC(=O)c2cccnc2)n1Cc1ccc(OC)cc1 [Cpd 1, [5-{(R)-2-(1H-Indol-3-yl)-1-[(pyridine-3-carbonyl)-amino]-ethyl}-4-(4-methoxy-benzyl)-4H-[1,2,4]triazol-3-yl]-acetic acid ethyl ester]
[1]
  IC50: 12.8 nM
[2]
  IC50: 3 nM

## COc1ccc(Cn2c([C@@H](Cc3c[nH]c4ccccc34)NC(C)=O)nnc2[C@@H](Cc2c[nH]c3ccccc23)NC(=O)c2ccccn2)cc1.O=C(O)C(F)(F)F [Cpd 3, Pyridine-2-carboxylic acid [(R)-1-[5-[(R)-1-acetylamino-2-(1H-indol-3-yl)-ethyl]-4-(4-methoxy-benzyl)-4H-[1,2,4]triazol-3-yl]-2-(1H-indol-3-yl)-ethyl]-amide]
[1]
  IC50: 2.2 nM
hERG channel
  hERG Predictor EC50: no inhibition
[3]
  Stability in Liver Microsomes Rat % Remaining after 1 h Incubation: 38.5%
[4]
  Papp A→B at 2 h: 0.37 ± 0.02 ×10⁻⁶ cm/s
  Papp B→A at 2 h: 17.2 ± 0.42 ×10⁻⁶ cm/s
  efflux ratio at 2 h: 51.9
[5]
  EC50: 38.6 µM
CYP3A4; marker substrate midazolam, 30 minutes preincubation with NADPH, read-out: CYP3A4 Inhibition Midazolam Preincubation EC50
  EC50: 980 nM
CYP3A4; marker substrate midazolam, direct inhibition, human liver microsomes, read-out: CYP3A4 Inhibition Midazolam EC50
  EC50: 3200 nM
[6]
  IC50: 29.9 nM
[7]
  IC50: 29.2 nM
[8]
  IC50: 0.6 nM
[2]
  IC50: 2.5 nM

## COc1ccc(Cn2c([C@@H](Cc3ccccc3)NC(C)=O)nnc2[C@@H](Cc2c[nH]c3ccccc23)NC(=O)CO)cc1.O=C(O)C(F)(F)F [Cpd 6, N-[(R)-1-[5-((R)-1-Acetylamino-2-phenyl-ethyl)-4-(4-methoxy-benzyl)-4H-[1,2,4]triazol-3-yl]-2-(1H-indol-3-yl)-ethyl]-2-hydroxy-acetamide]
[1]
  IC50: 7.8 nM
hERG channel
  hERG Predictor EC50: no inhibition
[3]
  Stability in Liver Microsomes Rat % Remaining after 1 h Incubation: 27.1%
[5]
  Inhibition of MDR1 ATPase EC50: no inhibition
CYP3A4; [9]
  EC50: 1400 nM
CYP3A4; [10]
  EC50: 34300 nM
[8]
  IC50: 3 nM
[2]
  IC50: 2.1 nM

## COc1ccc(Cn2c([C@@H](Cc3ccccc3)NC(C)=O)nnc2[C@@H](Cc2c[nH]c3ccccc23)NC(=O)[C@@H]2CNCCO2)cc1.O=C(O)C(F)(F)F [Cpd 7, (S)-Morpholine-2-carboxylic acid [(R)-1-[5-((R)-1-acetylamino-2-phenyl-ethyl)-4-(4-methoxy-benzyl)-4H-[1,2,4]triazol-3-yl]-2-(1H-indol-3-yl)-ethyl]-amide]
[1]
  IC50: 9.5 nM
hERG channel
  hERG Predictor EC50: no inhibition
[3]
  Stability in Liver Microsomes Rat % Remaining after 1 h Incubation: 82.7%
[5]
  EC50: 1.08 µM
CYP3A4; [9]
  EC50: 1100 nM
CYP3A4; [10]
  EC50: 27000 nM
[8]
  IC50: 3.4 nM
[2]
  IC50: 3.8 nM

## COc1ccc(Cn2c([C@@H](Cc3c[nH]c4ccccc34)NC(C)=O)nnc2[C@@H](Cc2c[nH]c3ccccc23)NC(=O)C(C)(C)N)cc1.O=C(O)C(F)(F)F [Cpd 8, N-[(R)-1-[5-[(R)-1-Acetylamino-2-(1H-indol-3-yl)-ethyl]-4-(4-methoxy-benzyl)-4H-[1,2,4]triazol-3-yl]-2-(1H-indol-3-yl)-ethyl]-2-amino-2-methyl-propionamide]
[1]
  IC50: 22.4 nM
hERG channel
  hERG Predictor EC50: no inhibition
[3]
  Stability in Liver Microsomes Rat % Remaining after 1 h Incubation: 64.3%
[4]
  Papp A→B at 2 h: 0.08 ± 0.08 ×10⁻⁶ cm/s
  Papp B→A at 2 h: 0.74 ± 0.03 ×10⁻⁶ cm/s
  efflux ratio at 2 h: 9.25
[5]
  EC50: 196 µM
CYP3A4; [9]
  EC50: 900 nM
CYP3A4; [10]
  EC50: 31200 nM
[6]
  IC50: 1050 nM
[7]
  IC50: 363 nM
[8]
  IC50: 1.4 nM
[2]
  IC50: 19.1 nM

## COc1ccc(Cn2c([C@@H](Cc3c[nH]c4ccccc34)NC=O)nnc2[C@@H](Cc2c[nH]c3ccccc23)NC(=O)C(C)(C)N)cc1.O=C(O)C(F)(F)F [Cpd 9, 2-Amino-N-[(R)-1-[5-[(R)-1-formylamino-2-(1H-indol-3-yl)-ethyl]-4-(4-methoxy-benzyl)-4H-[1,2,4]triazol-3-yl]-2-(1H-indol-3-yl)-ethyl]-2-methyl-propionamide]
[1]
  IC50: 58.6 nM
hERG channel
  hERG Predictor EC50: no full dose
[3]
  Stability in Liver Microsomes Rat % Remaining after 1 h Incubation: 54.8%
[5]
  EC50: 0.836 µM
CYP3A4; [9]
  EC50: 1500 nM
CYP3A4; [10]
  EC50: 10000 to 30000 nM
[8]
  IC50: 3.2 nM
[2]
  IC50: 32.6 nM

## COc1ccc(Cn2c(CCc3c[nH]c4ccccc34)nnc2[C@@H](Cc2ccc3ccccc3c2)NC(=O)OC(C)(C)C)cc1.O=C(O)C(F)(F)F [Cpd 15, {(R)-1-[5-[2-(1H-Indol-3-yl)-ethyl]-4-(4-methoxy-benzyl)-4H-[1,2,4]triazol-3-yl]-2-naphthalen-2-yl-ethyl}-carbamic acid tert-butyl ester]
[1]
  IC50: 24.9 nM
[3]
  Stability in Liver Microsomes Rat % Remaining after 1 h Incubation: 37.8%
[5]
  EC50: 16.3 µM
[8]
  IC50: 16.5 nM
[2]
  IC50: 39.9 nM

— patent US8546435B2, “Triazole derivatives with improved receptor activity and bioavailability properties as ghrelin antagonists of growth hormone secretagogue receptors” (AEterna Zentaris GmbH, priority 2010, dated 2013)
